{
  "source": "patent US20010018445A1",
  "about": "“Pharmaceutical composition for the treatment of hepatocellular carcinoma” (TTY BIOPHARM COMPANY LIMITED, priority 2000, published 2001)",
  "key": {"hepatocellular carcinoma [1]": {"tested_on": "hepatocellular carcinoma", "format": "in vivo, human", "protocol": "FIGS. 1-4 show computerized abdominal tomography of a patient, before and after, treatment with thalidomide. […] The serum level of alpha-fetoprotein in the patient is 4335 μg/ml. […] The massive type index lesion at the left hepatic lobe shown in FIG. 3 has been reduced to the size of 3 cm×3 cm. The serum level of alpha-fetoprotein in the patient is 1501 μg/ml. In addition, the scan show the occurrence of ascitic fluid.\nA patient weighted 55 kg with medical history of hepatitis C was diagnosed with hepatocellular carcinoma in December 1998 and treated with transcatheter arterial chemoembolization. They were treated with transcatheter arterial chemoembolization again in March and June 1999. According to the computerized abdominal tomography and gastrointestinal track barium enema, hepatocellular carcinoma invasion of the right colon and duodenum was doubted. The patient was treated with radiation on the right liver lobe during July to September 1999. After one-month of treatment, the serum level of alpha-fetoprotein in the patient increased from 105 μg/ml, before treatment, to 535 μg/ml. […] The patient was treated with a forth transcatheter arterial chemoembolization. The serum level of alpha-fetoprotein in the patient was increased to 1572 μg/ml.\nThe serum level of alpha-fetoprotein in the patient was up to 4335 μg/ml. The liver function exacerbated that the total bilirubin was […], GOT/GPT was 253/115 IU and alkaline phosphase (ALP) was 239 unit/l. […] A capsule containing 100 mg of thalidomide was orally administered to the patient twice daily during the thalidomide treatment. […] However, ascitic fluid was found. The abdominal paracentesis evidenced that ascitic fluid was caused by spontaneous bacterial peritonitis. […] The patient was then administered with antibiotics for the treatment of spontaneous bacterial peritonitis. The patient was still treated with thalidomide to the present."}, "hepatocellular carcinoma [2]": {"tested_on": "hepatocellular carcinoma", "experiment": "Thalidomide treatment of two patients with metastatic and locally advanced hepatocellular carcinoma (Example 3)", "format": "in vivo, human", "details": "thalidomide 100 mg twice daily", "protocol": "Thalidomide was administered 100 mg twice daily. They were subjected to serum alpha-fetoprotein test every 2-4 weeks and computed tomography or magnetic resonance image examination every 4-8 weeks."}, "hepatocellular carcinoma [3]": {"tested_on": "hepatocellular carcinoma", "experiment": "Clinical observation of thalidomide in hepatocellular carcinoma, summary statement on side effects", "format": "in vivo, human", "details": "patients with metastatic hepatocellular carcinoma or where local treatment has failed", "from_the_text": "The subject invention utilizes thalidomide to treat metastatic hepatocellular carcinoma and hepatocellular carcinoma, where local treatment has failed.\nThe therapeutic efficacy of the pharmaceutical composition of the subject invention comprising thalidomide on the treatment of hepatocellular carcinoma has been supported by clinical observation as illustrated in the following examples."}, "[4]": {"details": "in water, methanol, ethanol or acetone; cited from earlier work"}, "[5]": {"tested_on": "tumor necrotic factor-alpha (TNF-I)", "details": "Journal of Infectious Diseases, 1993, 168, p. 408-414; cited from earlier work"}, "[6]": {"tested_on": "basic fibroblast growth factor-induced angiogenesis", "details": "Anti-Cancer Drugs, 1996, 7, p.339-343; cited from earlier work"}, "angiogenesis": {"tested_on": "angiogenesis", "details": "U.S. Pat. Nos. 5,593,990 and 5,629,327; cited from earlier work"}, "[7]": {"details": "women who took thalidomide in the first trimester of pregnancy; cited from earlier work"}, "[8]": {"details": "after treatment with thalidomide"}},
  "data": [
    {"smiles": "O=C1CCC(N2C(=O)c3ccccc3C2=O)C(=O)N1", "note": "(stereo not shown) [thalidomide, 2-(2,6-dioxo-3-piperidinyl)-1H-isoindolle-1,3(2H)-dione]", "values": [
      {"measurement": "hepatocellular carcinoma of the two liver lobes on follow-up MRI", "setting": "hepatocellular carcinoma [1]; after four weeks of treatment", "result": "significantly remitted"},
      {"measurement": "most diffused hepatocellular carcinoma infiltrating left and right hepatic lobes (computerized abdominal tomography)", "setting": "hepatocellular carcinoma [1]; [8]", "result": "disappear"},
      {"measurement": "variation of the serum level of alpha-fetoprotein (FIG. 5)", "setting": "hepatocellular carcinoma [1]; [8]", "result": "significantly decreased"},
      {"measurement": "right upper quadrant tenderness", "setting": "hepatocellular carcinoma [1]; after two weeks of treatment, 100 mg orally twice daily", "result": "significantly relieved"},
      {"measurement": "alkaline phosphase (ALP)", "setting": "hepatocellular carcinoma [1]; human, in vivo", "result": 233, "unit": "unit/l"},
      {"measurement": "serum level of alpha-fetoprotein", "setting": "hepatocellular carcinoma [1]; one patient, 100 mg thalidomide capsule orally twice daily, after four weeks, 4335 μg/ml before treatment", "result": 1501, "unit": "µg/mL"},
      {"measurement": "serum alpha-fetoprotein level (FIGS. 6 and 7)", "setting": "hepatocellular carcinoma [2]", "result": "significant reduced"},
      {"measurement": "side effects, such as arrest of bone marrow or hepatotoxicity", "setting": "hepatocellular carcinoma [3]", "result": "without significant side effects"},
      {"measurement": "solubility", "setting": "[4]", "result": "sparingly soluble"},
      {"measurement": "inhibition of tumor necrotic factor-alpha (TNF-I)", "setting": "[5]", "result": "could effectively inhibit"},
      {"measurement": "inhibition of basic fibroblast growth factor-induced angiogenesis", "setting": "[6]", "result": "could effectively inhibit"},
      {"measurement": "inhibition of angiogenesis", "setting": "angiogenesis", "result": "could effectively inhibit"},
      {"measurement": "teratogenic effect", "setting": "[7]", "result": "would deliver terata, such as phocomelia"}
    ]}
  ]
}
